From ChEMBL document CHEMBL1201862, “PubChem BioAssay data set” (2004)
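96-well plates; 48 h exposure; 5 concentrations. Endpoints by linear interpolation between flanking doses. Not reached: highest tested concentration assigned. GI50 = concentration required for 50% inhibition of growth.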 Active and inactive are the calls of the source. No stated cut-off is given here; in the data, active = GI50 up to about 1.1 µM and inactive = higher. Residues, ends and D or L forms follow the SMILES beside them. *: point of attachment. Cbz = O=C(OCc1ccccc1)*

Experiments:
Assay in all cases: growth of human tumour cells (NCI), 48 h
EKVX = tested on: EKVX
SF-539 = tested on: SF-539
OVCAR-3 = tested on: OVCAR-3
A549 = tested on: A549
MOLT-4 = tested on: MOLT-4
U-251 = tested on: U-251
UACC-257 = tested on: UACC-257
Hs-578T = tested on: Hs-578T
MDA-N = tested on: MDA-N
SK-MEL-28 = tested on: SK-MEL-28
LOX IMVI = tested on: LOX IMVI
HCT-15 = tested on: HCT-15
COLO 205 = tested on: COLO 205
UACC-62 = tested on: UACC-62
NCI-H226 = tested on: NCI-H226
SR = tested on: SR
MDA-MB-231 = tested on: MDA-MB-231
DU-145 = tested on: DU-145
NCI/ADR-RES = tested on: NCI/ADR-RES

Compound	GI50 (EKVX)	GI50 (SF-539)	GI50 (OVCAR-3)	GI50 (A549)	GI50 (MOLT-4)	GI50 (U-251)	GI50 (UACC-257)	GI50 (Hs-578T)	GI50 (MDA-N)	GI50 (SK-MEL-28)	GI50 (LOX IMVI)	GI50 (HCT-15) [µM]	GI50 (COLO 205)	GI50 (UACC-62)	GI50 (NCI-H226)	GI50 (SR)	GI50 (MDA-MB-231)	GI50 (DU-145)	GI50 (NCI/ADR-RES)
N#CC1=C(N)OC2=C(CCCc3ccc([N+](=O)[O-])cc32)C1c1ccccc1 (stereo not drawn)	6.19 µM (inactive)	3.17 µM (inactive)	2.21 µM (inactive)	6.21 µM (inactive)	3.69 µM (inactive)	4.71 µM (inactive)	5.13 µM (inactive)	15.9 µM (inactive)	2.09 µM (inactive)	5.82 µM (inactive)	5.35 µM (inactive)	2.45	3.69 µM (inactive)	1.98 µM (inactive)	8.3 µM (inactive)	2.36 µM (inactive)	17.7 µM (inactive)	4.86 µM (inactive)	2.38 µM (inactive)
O=[N+]([O-])c1ccc(-n2nc3ccc4nonc4c3n2)cc1	58.3 µM (inactive)	44.8 µM (inactive)	71.4 µM (inactive)	72.1 µM (inactive)	> 100 µM (inactive)	77.1 µM (inactive)	> 100 µM (inactive)	13.3 µM (inactive)	> 100 µM (inactive)	46.2 µM (inactive)	42.4 µM (inactive)	> 100	> 100 µM (inactive)	32.5 µM (inactive)	17.8 µM (inactive)	> 100 µM (inactive)	> 100 µM (inactive)	79.6 µM (inactive)	56.1 µM (inactive)
Cn1c2cc(Cl)ccc2c2ccc3c(c21)C(=O)C=CC3=O	> 71.4 µM (inactive)	> 55 µM (inactive)	11.7 µM (inactive)	> 100 µM (inactive)	2.75 µM (inactive)	45.9 µM (inactive)	26.4 µM (inactive)	46.9 µM (inactive)	26.1 µM (inactive)	25.3 µM (inactive)	42.5 µM (inactive)	22.4	13.8 µM (inactive)	21.5 µM (inactive)	> 100 µM (inactive)	6.07 µM (inactive)	26.9 µM (inactive)	> 57 µM (inactive)	> 52.4 µM (inactive)
C=CCC(CC=O)(C(=O)OCC)C(=O)OCC	> 100 µM (inactive)	> 100 µM (inactive)	> 100 µM (inactive)	> 100 µM (inactive)	> 100 µM (inactive)	> 100 µM (inactive)	> 100 µM (inactive)	> 100 µM (inactive)	> 100 µM (inactive)	> 100 µM (inactive)	> 100 µM (inactive)	> 100	> 100 µM (inactive)	> 100 µM (inactive)	> 100 µM (inactive)	> 100 µM (inactive)	> 100 µM (inactive)	> 100 µM (inactive)	> 100 µM (inactive)
O=[N+]([O-])c1ccc(Sc2c3ccccc3nc3ccccc23)nc1	17 µM (inactive)	16.7 µM (inactive)	5.74 µM (inactive)	26.2 µM (inactive)	2.75 µM (inactive)	24.3 µM (inactive)	7.06 µM (inactive)	19.4 µM (inactive)	5.12 µM (inactive)	4.75 µM (inactive)	2.24 µM (inactive)	4	2.37 µM (inactive)	15.3 µM (inactive)	16.3 µM (inactive)	2.47 µM (inactive)	6.14 µM (inactive)	6.93 µM (inactive)	19 µM (inactive)
CCOC(=O)CCC(NC(=O)OCc1ccccc1)C(=O)NC(CCC(=O)OCC)C(=O)OCC (stereo not drawn) (Cbz-Glu(OEt)-Glu(OEt)-OEt; configuration not given here)	> 100 µM (inactive)	> 100 µM (inactive)	> 100 µM (inactive)	> 100 µM (inactive)	> 100 µM (inactive)	> 100 µM (inactive)	> 100 µM (inactive)	> 100 µM (inactive)	> 100 µM (inactive)	> 100 µM (inactive)	> 100 µM (inactive)	> 100	> 100 µM (inactive)	> 100 µM (inactive)	> 100 µM (inactive)	> 100 µM (inactive)	> 100 µM (inactive)	> 100 µM (inactive)	> 100 µM (inactive)
O=C1/C(=N\NC(=S)NC2CCCCC2)c2cc([N+](=O)[O-])ccc2N1CN1CCOCC1	3.13 µM (inactive)	11.4 µM (inactive)	5.86 µM (inactive)	4.05 µM (inactive)	1.71 µM (inactive)	4.52 µM (inactive)	10.5 µM (inactive)	15 µM (inactive)	6.08 µM (inactive)	10.9 µM (inactive)	5.04 µM (inactive)	2.39	5.32 µM (inactive)	7.89 µM (inactive)	19.1 µM (inactive)	1.14 µM (inactive)	15.8 µM (inactive)	11 µM (inactive)	3.26 µM (inactive)
CCOC(=O)c1ccc(Nc2nc3ccccc3nc2-c2cccs2)cc1	35.3 µM (inactive)	> 100 µM (inactive)	31 µM (inactive)	66.4 µM (inactive)	23.6 µM (inactive)	97.9 µM (inactive)	39.8 µM (inactive)	> 100 µM (inactive)	19 µM (inactive)	> 100 µM (inactive)	21.9 µM (inactive)	25.3	96.6 µM (inactive)	4.24 µM (inactive)	> 100 µM (inactive)	26.9 µM (inactive)	18.7 µM (inactive)	> 100 µM (inactive)	35.6 µM (inactive)
c1coc(C2=Nc3cccc4cccc(c34)N2)c1	55.2 µM (inactive)	15 µM (inactive)	24.2 µM (inactive)	60.3 µM (inactive)	> 100 µM (inactive)	69 µM (inactive)	41.4 µM (inactive)	55.6 µM (inactive)	41.1 µM (inactive)	72.9 µM (inactive)	41.9 µM (inactive)	26.5	14.8 µM (inactive)	35.5 µM (inactive)	> 100 µM (inactive)	> 100 µM (inactive)	34.6 µM (inactive)	> 100 µM (inactive)	18.7 µM (inactive)
CC1=CC[C@@H]2[C@@H](CC[C@@]2(C)O)C(C)(C)[C@H]1CC[C@@H]1[C@@]2(C)CCC(=O)C(C)(C)O[C@@H]2CC[C@]1(C)O	42.1 µM (inactive)	17.3 µM (inactive)	37.7 µM (inactive)	24.7 µM (inactive)	20.7 µM (inactive)	31.9 µM (inactive)	30.3 µM (inactive)	22.8 µM (inactive)	25 µM (inactive)	31.2 µM (inactive)	19.1 µM (inactive)	14.9	25.6 µM (inactive)	16.1 µM (inactive)	22.5 µM (inactive)	19 µM (inactive)	45.6 µM (inactive)	42.9 µM (inactive)	21.9 µM (inactive)
CO/C(N)=C(C#N)/N=C/c1ccccc1	66.7 µM (inactive)	> 100 µM (inactive)	> 100 µM (inactive)	> 100 µM (inactive)	> 100 µM (inactive)	> 100 µM (inactive)	> 100 µM (inactive)	> 100 µM (inactive)	> 100 µM (inactive)	> 100 µM (inactive)	> 100 µM (inactive)	> 100	71.9 µM (inactive)	48 µM (inactive)	> 100 µM (inactive)	> 100 µM (inactive)	> 100 µM (inactive)	> 100 µM (inactive)	> 100 µM (inactive)
COC(=O)C(Cc1ccccc1I)C1=CCC2(CC1)OCCO2 (stereo not drawn)	47.6 µM (inactive)	63.8 µM (inactive)	20.8 µM (inactive)	22.4 µM (inactive)	21.4 µM (inactive)	45.4 µM (inactive)	27.1 µM (inactive)	26.6 µM (inactive)	28.6 µM (inactive)	48.9 µM (inactive)	23.3 µM (inactive)	26.1	28.4 µM (inactive)	20 µM (inactive)	79.3 µM (inactive)	18 µM (inactive)	54.5 µM (inactive)	25 µM (inactive)	18.6 µM (inactive)
CC(=O)O[C@H]1C(=O)[C@@]2(C)[C@H]([C@H](OC(=O)c3cccc([N+](=O)[O-])c3)[C@]3(O)C[C@H](OC(=O)[C@H](O)[C@@H](NC(=O)c4ccccc4)c4ccccc4)C(C)=C1C3(C)C)[C@]1(OC(C)=O)CO[C@@H]1C[C@@H]2O	2.78 µM (inactive)	< 0.0025 µM (active)	< 0.0025 µM (active)	0.014 µM (active)	0.00509 µM (active)	0.00681 µM (active)	< 0.0025 µM (active)	0.00322 µM (active)	0.00285 µM (active)	0.0157 µM (active)	0.00558 µM (active)	0.438	0.00474 µM (active)	0.0153 µM (active)	0.00257 µM (active)	0.00447 µM (active)	0.0122 µM (active)	0.0177 µM (active)	5.52 µM (inactive)
COc1cc2ncnc(NS(=O)(=O)c3cc4ccccc4s3)c2cc1OC	75 µM (inactive)	> 100 µM (inactive)	> 100 µM (inactive)	> 100 µM (inactive)	> 100 µM (inactive)	> 100 µM (inactive)	> 100 µM (inactive)	49.9 µM (inactive)	> 100 µM (inactive)	–	> 100 µM (inactive)	> 100	> 100 µM (inactive)	89.1 µM (inactive)	> 100 µM (inactive)	> 100 µM (inactive)	> 100 µM (inactive)	> 100 µM (inactive)	> 100 µM (inactive)
Cc1cc2c3c(c1)S(=O)(=O)c1cc(Cl)ccc1N3CCC2	> 100 µM (inactive)	> 100 µM (inactive)	> 100 µM (inactive)	> 100 µM (inactive)	57.7 µM (inactive)	–	60.8 µM (inactive)	22 µM (inactive)	> 100 µM (inactive)	> 100 µM (inactive)	> 100 µM (inactive)	> 100	> 100 µM (inactive)	> 100 µM (inactive)	> 100 µM (inactive)	> 100 µM (inactive)	83.9 µM (inactive)	> 100 µM (inactive)	> 100 µM (inactive)
